According to ChEMBL document CHEMBL4177718, “Discovery of molecular mechanism of a clinical herbal formula upregulating serum HDL-c levels in treatment of metabolic syndrome by in vivo and computational studies” (2018):

Organism: Rattus norvegicus
Assay: Up-regulation of ABCA1 protein expression in serum of Wistar rat model of metabolic syndrome fed with high-sugar-fat-diet for 15 weeks followed by high-fat emulsion for 2 weeks by ELISA
Type: functional

Compound	fold change (FC)
COc1cc(N)ccc1C(=O)/C=C/c1ccc(C)s1	1.5
CCc1ccc(/C=C/C(=O)c2ccc(N)cc2O)cc1	1.73
Nc1ccc(C(=O)/C=C/c2ccc(-c3ccccc3)cc2)c(O)c1	1.55
Nc1ccc(C(=O)/C=C/c2cccc(Oc3ccccc3)c2)c(O)c1	1.76
COc1ccc(-c2ccc(/C=C/C(=O)c3ccc(N)cc3O)s2)cc1	1.09
Nc1ccc(C(=O)/C=C/c2csc3ccccc23)c(O)c1	2.31
Nc1ccc(C(=O)/C=C/c2c[nH]c3ccccc23)c(O)c1	1.76
Nc1ccc(C(=O)/C=C/c2ccc3ccccc3c2)c(O)c1	2.64
Nc1ccc(C(=O)/C=C/c2ccc3c(c2)OCO3)c(O)c1	1.92
Cc1ccc(CCC(=O)c2ccc(N)cc2O)o1	1.9
Nc1ccc(C(=O)CCc2ccc3ccccc3c2)c(O)c1	1.34
COc1cc(N(C)C)ccc1C(=O)/C=C/c1ccc(C)o1	1.57
COc1cc(N(C)C)ccc1C(=O)/C=C/c1ccc2ccccc2c1	1.35
COc1cc(N)ccc1C(=O)/C=C/c1ccc2ccccc2c1	0.88
COc1cc(N)ccc1C(=O)/C=C/c1ccc(C)o1	1.2
CCOc1ccc(/C=C/C(=O)c2ccc(N)cc2OC)cc1	1.06
Cc1ccc(/C=C/C(=O)c2ccc(N(C)C)cc2O)o1	1.02
CC(=O)Nc1ccc(C(=O)/C=C/c2ccc(C)s2)c(O)c1	1.08
O=c1cc(-c2c[nH]c3ccccc23)oc2cc(O)ccc12	1.9
O=c1cc(-c2csc3ccccc23)oc2cc(O)ccc12	1.44
O=C(O)c1ccc(-c2cc(=O)c3ccc(O)cc3o2)cc1	1.66

Compound	fold change (FC)
CC(C)c1ccc(-c2cc(=O)c3ccc(O)cc3o2)cc1	1.22
O=c1cc(-c2cccc(Oc3ccccc3)c2)oc2cc(O)ccc12	1.17
O=c1cc(-c2ccc(-c3ccccc3)cc2)oc2cc(O)ccc12	1.15
COc1ccc(-c2ccc(-c3cc(=O)c4ccc(O)cc4o3)s2)cc1	1.03
Cc1ccc(-c2cc(=O)c3ccc(N)cc3o2)o1	1.3
Cc1ccc(-c2cc(=O)c3ccc(N)cc3o2)s1	1.47
CCOc1ccc(-c2cc(=O)c3ccc(N)cc3o2)cc1	1.37
Cc1ccc(/C=C/C(=O)c2ccc(N)cc2O)o1	2.09
Cc1ccc(/C=C/C(=O)c2ccc(N)cc2O)s1	2
CCOc1ccc(/C=C/C(=O)c2ccc(N)cc2O)cc1	1.92
CSc1ccc(/C=C/C(=O)c2ccc(N)cc2O)cc1	1.26
COc1cccc(/C=C/C(=O)c2ccc(N)cc2O)c1	2.09
Nc1ccc(C(=O)/C=C/c2ccc(F)cc2)c(O)c1	1.36
Nc1ccc(C(=O)/C=C/c2ccc(Cl)cc2)c(O)c1	1.16
Nc1ccc(C(=O)/C=C/c2cc(C(F)(F)F)cc(C(F)(F)F)c2)c(O)c1	1.12
COc1cc(/C=C/C(=O)c2ccc(N)cc2O)cc(OC)c1OC	0.98
CC(C)c1ccc(/C=C/C(=O)c2ccc(N)cc2O)cc1	2.05
O=c1cc(-c2ccc3ccccc3n2)oc2cc(O)ccc12	1.36
O=c1cc(-c2ccc3ccccc3c2)oc2cc(O)ccc12	1.57
COc1ccc(/C=C/C(=O)c2ccc(N)cc2O)cc1OC	1.86
